Data as given in patent publication US20230081034A1 (SHANGHAI BENEMAE PHARMACEUTICAL CORPORATION, priority 2020, published 2023).
Entries after “also recorded” stand apart in the source; their conditions may differ.

What was measured:
[1] = test system: obese and overweight patients with type 2 diabetes; assay: Beinaglutide dosing regimen (continuous subcutaneous pump plus pre-meal doses), alone or with metformin / insulin glargine, one month; assay type: in vivo, human
Protocol: The beinaglutide dosing regimen included 1) a continuous subcutaneous administration of beinaglutide at 12.5 μg/h (300 μg/d) via a subcutaneous pump, 2) a one-time subcutaneous administration of beinaglutide at a dose of 100 μg 5 min before each of the three meals a day, and 3) optional administration of insulin glargine and/or metformin.
The patients treated were overweight/obesity in short disease course of type 2 diabetes. Two patients were female, and four patients were male. The patients were 30 to 55 years old with a course of disease between 0 and 5 years with glycated hemoglobin between 9% and 12%, and BMI between 26 and 30 kg/m^2.
Three patients were treated with beinaglutide monotherapy. Three patients were treated with a combinational therapy of beinaglutide and one or two third active ingredients (metformin, or metformin and glargine). Glycated hemoglobin (HbA1c) and weight were measured.
The patients were treated with the beinaglutide dosing regimen described herein, either alone or in combination with one or more third active ingredients. Some patients were treated with insulin (daily dosage of 0.5 u/kg) pump treatment alone or in combination with metformin (0.5 g tid) for a week right before starting the beinaglutide treatment.

[2] = test system: patients with type 2 diabetes; assay: Randomized, double-blind, placebo-controlled clinical trial: subcutaneous beinaglutide before meals in combination with oral metformin, 12-week treatment; assay type: in vivo, human
Protocol: The inclusion criteria (if any) are as follows: Type 2 diabetic patients that met the World Health Organization's diagnostic criteria for type 2 diabetes (WHO, 1999) who received oral metformin treatment at dosages 1,000 mg/d that had stabilized for at least 3 months without treatment-related adverse events (e.g., vomiting) and voluntarily signed informed consent and with the following criteria:
In a randomized, double-blind, placebo-controlled clinical trial, 42 patients with type 2 diabetes treated with metformin monotherapy were randomly divided into a treatment group and a control group, with 21 cases in each group. All patients received metformin (Glucophage, purchased from Bristol-Myers Squibb) with original dosages. 200 μg of beinaglutide (from Benemae, treatment group) or a placebo (Benemae, control group) were administered to patients by one-time subcutaneous injection before each of three meals (600 μg/d) and followed up after a 12-week treatment.
Glycated hemoglobin (HbA1c), fasting blood glucose, 2 h postprandial blood glucose, BMI, and other effectiveness indicators were measured.

[3] = Patient 2: insulin (0.5 u/kg) 1 week, then beinaglutide regimen + metformin (0.5 g tid) 1 month
[4] = treatment group, after 12 weeks beinaglutide 600 μg/d s.c. + metformin

**Q.** What does the source list for “His-Ala-Glu-Gly-Thr-Phe-Thr-Ser-Asp-Val-Ser-Ser-Tyr-Leu-Glu-Gly-Gln-Ala-Ala-Lys-Glu-Phe-Ile-Ala-Trp-Leu-Val-Lys-Gly-Arg [beinaglutide]”?
**A.** Body weight pre-treatment ([1]; Patient 1, baseline): 61 kg; HbA1c pre-treatment ([1]; Patient 1, baseline): 9.4%; Body weight post-treatment ([1]; Patient 1: insulin (0.5 u/kg) + metformin (0.5 g tid) 1 week, then beinaglutide monotherapy (12.5 μg/h continuous s.c. + 100 μg before each of three meals) 1 month): 57.5 kg; Body weight pre-treatment ([1]; Patient 2, baseline): 99 kg; HbA1c pre-treatment ([1]; Patient 2, baseline): 8.8%; Body weight post-treatment [1, 3]: 93 kg; HbA1c post-treatment [1, 3]: 6.3%; Body weight pre-treatment ([1]; Patient 3, baseline): 88 kg; HbA1c pre-treatment ([1]; Patient 3, baseline): 12.3%; Body weight post-treatment ([1]; Patient 3: insulin (0.5 u/kg) 1 week, then beinaglutide regimen + metformin (0.5 g tid) 1 month): 83 kg; Body weight pre-treatment ([1]; Patient 4, baseline): 80 kg; HbA1c pre-treatment ([1]; Patient 4, baseline): 9.3%; Body weight post-treatment ([1]; Patient 4: insulin (0.5 u/kg) 1 week, then beinaglutide regimen + metformin (0.5 g tid) + insulin glargine (16 u s.c. before bed) 1 month): 73 kg; Body weight pre-treatment ([1]; Patient 5, baseline): 80 kg; HbA1c pre-treatment ([1]; Patient 5, baseline): 7.3%; Body weight post-treatment ([1]; Patient 5: beinaglutide monotherapy (12.5 μg/h continuous s.c. + 100 μg before each of three meals) 1 month): 77 kg; Body weight pre-treatment ([1]; Patient 6, baseline): 85 kg; HbA1c pre-treatment ([1]; Patient 6, baseline): 9.7%; Body weight post-treatment ([1]; Patient 6: insulin (0.5 u/kg) 1 week, then beinaglutide monotherapy (0.6 mg/d) 1 month): 78 kg; Overall outcome on body weight and HbA1c ([1]; six patients, continuous 300 μg/d + 100 μg tid before meal, alone or with metformin or metformin and insulin glargine, one month): significant weight loss and/or HbA1c decrease; also recorded: achieved decrease in HbA1c and/or body weight; BMI, treatment group versus control group ([2]; 12 weeks, P>0.05): no statistic differences between the two groups; Postprandial blood glucose decreased by ([2]; 2 h postprandial, treatment group, beinaglutide 600 μg/d s.c. + metformin, 12 weeks, P<0.01): 4.18 mmol/L; HbA1c decreased by ([2]; treatment group (21 cases), metformin at original dosage + beinaglutide 200 μg s.c. before each of three meals (600 μg/d), 12 weeks, P<0.01): 1.17%; HbA1c and fasting blood glucose post-treatment versus control group ([2]; treatment group vs placebo + metformin, 12 weeks, P<0.05): even more significant decrease comparing with control group; HbA1c and fasting blood glucose post-treatment versus pre-treatment ([2]; treatment group, 12 weeks beinaglutide 600 μg/d + metformin): significant decrease comparing with the pre-treatment indicators; BMI change after treatment ([2]; treatment group, 12 weeks, P<0.05 (control group also decreased)): significant decrease in BMI; HbA1c post-treatment ([2]; treatment group, after 12 weeks beinaglutide 200 μg s.c. before each of three meals + metformin): 6.8%; Fasting blood glucose post-treatment [2, 4]: 7.45 mmol/L; Postprandial blood glucose post-treatment [2, 4]: 11.02 mmol/L; Fasting blood glucose pre-treatment ([2]; treatment group, baseline): 9.43 mmol/L; Postprandial blood glucose pre-treatment ([2]; treatment group, baseline): 15.2 mmol/L; HbA1c pre-treatment ([2]; treatment group, baseline before beinaglutide 600 μg/d + metformin): 7.97%; Fasting blood glucose decreased by ([2]; treatment group, beinaglutide 600 μg/d s.c. + metformin, 12 weeks): 1.98 mmol/L
